The values below are quoted from earlier work in US7456141B2, “Photo resist stripper composition” (Echem Solutions Corp., priority 2004, dated 2008).

Each structure is given as a SMILES string. Read-outs that look alike come from different tables or passages of the source.

The conditions of series [1]: Table 3.
For series [2] the following is noted: Table 3, route and species not given; in mg/kg.
Series [3] relates to Rat.
In series [4] the test system is Mouse.
Series [5] concerns Rabbit.
The conditions of series [6]: for Flash Point / Ignition Point / Vaporizing Speed: Table 2; for Steam Pressure: at 20 ° C. (mmHg/° C. [sic]).
For series [7] the following is noted: for STEL: Short Time Exposure Limit, 15 minutes; for TWA: Time Weighted Average, eight hours a day and 40 hours a week.
Series [8] concerns Rat. The source holds these as a separate data set.
The subject of series [9] is Rat. The source holds these as a separate data set.

With `O=C1CCCCC1` [ANONE, cyclohexanone], in series [1], the “Flash Point” value was 44 °C, the “Vaporizing Point” value was 4 °C and the Viscosity is listed as 2.2 cst. The LD50 in series [2] was 1535.
With `CC(=O)OCCC(C)C` [IAAc, Isoamyl acetate], in series [1], the “Flash Point” value was 25 °C and the “Vaporizing Point” value is 4 °C. Moreover, the LD50 in [2] is on record as 16600.
In the case of `CC(=O)CC(C)C` [MIBK, Methyl isobutyl ketone], in series [3] (exposure time not given), the LC50/Inhale/Rat entry is on record as “LC50/Inhale/Rat: 4000 ppm”. For the same compound, in series [4], the LC50/Inhale/Mouse entry is recorded as “LC50/Inhale/Mouse: 23300 mg/m^3”. The LD50/Hypodermic/Rabbit entry in [5] was “LD50/Hypodermic/Rabbit: 20 mg/kg”. Further, in series [6], the “Flash Point” value was 18 °C, the “Ignition Point” value is 449 °C, the “Vaporizing Speed” value was 1.57 and the “Steam Pressure” value is listed as 16/20 mmHg. In addition, in series [7], the STEL is 75 ppm and the TWA is given as 50 ppm.
Consider `COCC(C)O` (centres unmarked) [PGME, propylene glycol mono-methyl ether], for which the LC50/Inhale/Rat entry in series [3] (7 hrs.) was “LC50/Inhale/Rat: 15000 ppm (7 hrs.)”. In addition, the LD50/Hypodermic/Rat entry in series [8] (hypodermic) is given as “LD50/Hypodermic/Rat: 13000 mg/kg”. Besides, in [6], the “Flash Point” value is 32 °C, the “Vaporizing Speed” value is recorded as 0.66 and the “Steam Pressure” value is recorded as 6.7/20 mmHg. For the same compound, in series [1], the “Flash Point” value was 32 °C, the “Vaporizing Point” value is 11.8 °C and the Viscosity is given as 1.8 cst. In addition, in [7], the TWA was 100 ppm. Also, the LD50/Oral/Rat entry in [9] is recorded as “LD50/Oral/Rat: 6600 mg/kg”. Besides, the LD50 in series [2] is reported as 6600.
Consider `COCC(C)OC(C)=O` (centres unmarked) [PGMEA, Propylene glycol mono-methyl ether acetate], for which the LC50/Inhale/Rat result in series [3] (6 hrs.) is “LC50/Inhale/Rat: 4345 ppm (6 hrs.)”. For the same compound, the LD50/Hypodermic/Rat result in series [8] (in vivo) is on record as “LD50/Hypodermic/Rat: 5000 mg/kg”. In [6], the “Flash Point” value was 42 °C, the “Ignition Point” value is 354 °C, the “Vaporizing Speed” value is given as 0.34 and the “Steam Pressure” value is recorded as 3.8/20 mmHg. Also, in series [1], the “Flash Point” value is 47 °C, the “Vaporizing Point” value is 3.8 °C and the Viscosity is 1.1 cst. In addition, the TWA in series [7] is 100 ppm. Further, the LD50/Oral/Rat entry in series [9] is on record as “LD50/Oral/Rat: 8532 mg/kg”. The LD50 in [2] is 8532.
Regarding `CCCCOC(C)=O` [nBAc, n-Butyl Acetate], the LC50/Inhale/Rat result in [3] (4 hrs.) is recorded as “LC50/Inhale/Rat: 2000 ppm (4 hrs.)”. In series [6], the “Flash Point” value was 22 °C, the “Ignition Point” value was 425 °C, the “Vaporizing Speed” value was 0.98 and the “Steam Pressure” value is 7.8/20 mmHg. For the same compound, in [1], the “Flash Point” value is 22 °C, the “Vaporizing Point” value was 15 °C and the Viscosity is given as 0.7 cst. Further, in series [7], the STEL is 200 ppm and the TWA was 150 ppm. The LD50 in series [2] is 13100.
